In the supplement of paper PMC10307832:

Experiments:
Experiment in all cases: relative viability (nuclei count vs DMSO), 5 days (fraction); higher = more cells survive
Bleomycin + Decitabine = compound: CC1=C(N=C(N=C1N)[C@H](CC(=O)N)NC[C@@H](C(=O)N)N)C(=O)N[C@@H]([C@H](C2=CN=CN2)OC3C(C(C(C(O3)CO)O)O)OC4C(C(C(C(O4)CO)O)OC(=O)N)O)C(=O)N[C@H](C)[C@H]([C@H](C)C(=O)N[C@@H]([C@@H](C)O)C(=O)NCCC5=NC(=CS5)C6=NC(=CS6)C(=O)NCCC[S+](C)C)O [Bleomycin] + Nc1ncn([C@H]2C[C@H](O)[C@@H](CO)O2)c(=O)n1 [Decitabine] (partner 2 µM); details: main component drawn
In short: (§1)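 Lung cancer cell lines in 1536-well plates got either a single drug or a fixed anchor-drug dose together with five library-drug doses (not always all listed) in √10 steps, by pin tool, on the day after seeding. Nuclei were counted after 5 days, and relative viability is the treated-to-vehicle ratio of nuclei counts. Values are medians of duplicate plates.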

Bleomycin + Phenformin = compound: CC1=C(N=C(N=C1N)[C@H](CC(=O)N)NC[C@@H](C(=O)N)N)C(=O)N[C@@H]([C@H](C2=CN=CN2)OC3C(C(C(C(O3)CO)O)O)OC4C(C(C(C(O4)CO)O)OC(=O)N)O)C(=O)N[C@H](C)[C@H]([C@H](C)C(=O)N[C@@H]([C@@H](C)O)C(=O)NCCC5=NC(=CS5)C6=NC(=CS6)C(=O)NCCC[S+](C)C)O [Bleomycin] + N=C(N)NC(=N)NCCc1ccccc1 [Phenformin] (partner 250 µM); details: main component drawn
In short: as §1

Bleomycin + Luminespib = compound: CC1=C(N=C(N=C1N)[C@H](CC(=O)N)NC[C@@H](C(=O)N)N)C(=O)N[C@@H]([C@H](C2=CN=CN2)OC3C(C(C(C(O3)CO)O)O)OC4C(C(C(C(O4)CO)O)OC(=O)N)O)C(=O)N[C@H](C)[C@H]([C@H](C)C(=O)N[C@@H]([C@@H](C)O)C(=O)NCCC5=NC(=CS5)C6=NC(=CS6)C(=O)NCCC[S+](C)C)O [Bleomycin] + CCNC(=O)c1noc(-c2cc(C(C)C)c(O)cc2O)c1-c1ccc(CN2CCOCC2)cc1 [Luminespib] (partner 0.01 µM); details: main component drawn
In short: as §1

Etoposide + Linsitinib = compound: COc1cc([C@@H]2c3cc4c(cc3[C@@H](O[C@@H]3O[C@@H]5CO[C@@H](C)O[C@H]5[C@H](O)[C@H]3O)[C@H]3COC(=O)[C@H]23)OCO4)cc(OC)c1O [Etoposide] + C[C@]1(O)C[C@@H](c2nc(-c3ccc4ccc(-c5ccccc5)nc4c3)c3c(N)nccn32)C1 [Linsitinib] (partner 1 µM)
In short: as §1

Cell Line	relative viability (Bleomycin + Decitabine; first compound 0.01 µM)	relative viability (Bleomycin + Decitabine; first compound 0.03162 µM)	relative viability (Bleomycin + Decitabine; first compound 0.1 µM)	relative viability (Bleomycin + Decitabine; first compound 0.3162 µM)	relative viability (Bleomycin + Decitabine; first compound 1 µM)	relative viability (Bleomycin + Phenformin; first compound 0.01 µM)	relative viability (Bleomycin + Phenformin; first compound 0.03162 µM)	relative viability (Bleomycin + Phenformin; first compound 0.1 µM)	relative viability (Bleomycin + Phenformin; first compound 0.3162 µM)	relative viability (Bleomycin + Phenformin; first compound 1 µM)	relative viability (Bleomycin + Luminespib; first compound 0.01 µM)	relative viability (Bleomycin + Luminespib; first compound 0.03162 µM)	relative viability (Bleomycin + Luminespib; first compound 0.1 µM)	relative viability (Bleomycin + Luminespib; first compound 0.3162 µM)	relative viability (Bleomycin + Luminespib; first compound 1 µM)	relative viability (Etoposide + Linsitinib; first compound 0.01 µM)	relative viability (Etoposide + Linsitinib; first compound 0.03162 µM)	relative viability (Etoposide + Linsitinib; first compound 0.1 µM)	relative viability (Etoposide + Linsitinib; first compound 0.3162 µM)	relative viability (Etoposide + Linsitinib; first compound 1 µM)
NCI-H1944	0.365	0.321	0.275	0.252	0.159	0.145	0.144	0.141	0.116	0.102	0.363	0.318	0.269	0.176	0.148	1.45	1.33	0.844	0.733	0.392
LU99A	0.77	0.809	0.64	0.448	0.211	0.636	0.827	0.673	0.33	0.159	0.297	0.283	0.256	0.172	0.162	0.495	0.614	0.333	0.264	0.201
NCI-H2405	0.648	0.655	0.61	0.433	0.309	0.333	0.399	0.383	0.263	0.262	0.651	0.697	0.589	0.347	0.358	0.791	0.96	0.582	0.7	0.377
NCI-H2009	0.39	0.392	0.353	0.293	0.271	0.474	0.512	0.489	0.403	0.383	0.962	1.04	0.961	0.704	0.618	1.09	1.24	1.25	0.839	0.401
HCC-15	0.591	0.639	0.543	0.336	0.276	0.418	0.457	0.387	0.16	0.129	0.183	0.231	0.203	0.164	0.144	0.892	0.903	0.755	0.396	0.16
HCC-44	0.773	0.795	0.693	0.396	0.407	0.104	0.0979	0.075	0.0859	0.0579	0.39	0.277	0.261	0.187	0.239	0.61	0.745	0.729	0.535	0.267
COR-L23	0.378	0.407	0.287	0.188	0.147	0.316	0.292	0.219	0.123	0.123	0.501	0.352	0.258	0.122	0.122	0.818	0.841	0.942	0.578	0.237
NCI-H838	0.398	0.369	0.297	0.228	0.478	0.381	0.297	0.185	0.188	0.153	0.269	0.176	0.142	0.119	0.162	0.937	0.994	0.902	0.644	0.296
NCI-H2126	0.626	0.621	0.601	0.567	0.566	0.55	0.536	0.559	0.349	0.303	0.954	0.934	0.872	0.566	0.551	0.738	0.719	0.457	0.598	0.437
BEN	0.719	0.745	0.685	0.607	0.542	0.247	0.277	0.251	0.24	0.235	0.327	0.329	0.342	0.332	0.2	0.695	0.983		0.78	0.681
LCLC-103H	0.676	0.68	0.677	0.721	0.537	0.329	0.333	0.294	0.274	0.223	0.849	0.826	0.747	0.496	0.333	0.998	1.12	0.93	1.02	0.902
EKVX	0.311	0.323	0.279	0.215	0.215	0.234	0.255	0.196	0.2	0.157	0.79	0.824	0.804	0.357	0.264	0.979	0.978	0.805	0.712	0.399
LXF-289	0.381	0.407	0.406	0.24	0.161	0.471	0.477	0.446	0.174	0.0704	0.568	0.472	0.49	0.133	0.093	0.968	1.06	1	0.703	0.293
ABC-1	0.911	0.837	1.01	0.803	0.591	0.241	0.234	0.258	0.239	0.199	0.578	0.737	0.561	0.198	0.225	0.753	0.894	0.879	0.418	0.308
NCI-H661	0.552	0.572	0.434	0.37	0.315	0.272	0.239	0.232	0.216	0.215	0.78	0.807	0.564	0.299	0.284	0.591	0.547	0.388	0.398	0.235
